Publication PMC6155299, “Synthesis and Evaluation of New Pyrazoline Derivatives as Potential Anticancer Agents in HepG-2 Cell Line” (Molecules : A Journal of Synthetic Chemistry and Natural …, 2017)
Where two headings read alike, the source gives them in different places.

Tests used:
[1] = test system: HepG-2 cells; assay: MTT assay, cytotoxic effects on HepG-2 cells; format: cell-based, human; conditions: 48 h
Protocol: (§1) Primary hepatocytes were isolated from male SD rats weighing 250–300 g using a modified in situ collagenase perfusion method and then the cells were cultured in Dulbecco’s Modified Eagle’s Medium (DMEM) with 2 g/L bovine serum albumin (BSA) and 50 mg/L gentamicin. HepG-2 cells were incubated in RPMI 1640 medium supplemented with 10% fetal bovine serum (FBS) and 1% penicillin–streptomycin liquid. Cells were incubated at 37 °C in a humidified atmosphere of 95% air and 5% CO2. Stock solutions of compounds and cisplatin were prepared in dimethyl sulfoxide (DMSO), then added to fresh culture medium to obtain final concentrations.
Next, compounds b14 and b18 were prepared in five different concentrations (20 µM, 40 µM, 60 µM, 80 µM, 100 µM), and compounds b15, b16, and b17, along with cisplatin, were prepared in seven different concentrations (2.5 µM, 5 µM, 7.5 µM, 10 µM, 20 µM, 40 µM, 60 µM). A suspension of growing cells (50,000/mL) was prepared, and 100 µL/well dispensed into 96-well plates, yielding a density of 5000 cells/well. The cells were incubated for 24 h before adding the pyrazoline derivatives. The optimal cell number for cytotoxicity assays was determined in preliminary experiments. At the end of the incubation period, the medium was removed and 100 µL of different concentrations of pyrazoline derivatives were added to wells for 24 h and 48 h. Following the exposure period, 20 µL of MTT (5 mg/mL) were added to cells and incubated for a further 4 h at 37 °C. The medium was removed and the formazan crystals were solubilized by adding 150 µL DMSO to each well. After 10 min of shaking, the absorbance was measured at 550 nm using a FilterMax F5 Multi-Mode Microplate Reader (Energy Chemical, Shanghai, China). Cells were treated with each compound with four replicates per concentration, and each experiment was conducted at least three times. Dose–inhibition rate curves and IC50 values, defined as the drug concentrations which reduced absorbance to 50% of control values, were then generated.

[2] = test system: primary hepatocytes; assay: MTS assay, cytotoxicity against primary hepatocytes; format: cell-based, rat; conditions: for IC50: Rattus norvegicus, Hepatocyte, 48 h; for cytotoxicity against primary hepatocytes (in words): compared with HepG-2
Protocol: as §1
The cytotoxicological activity of compounds b5, b9, and b14–18 were evaluated against primary hepatocytes using the MTS assay (Cell Titer 96® Aqueous Cell Proliferation Assay, Promega, Cat. No. G5421) as a fast and sensitive quantification of cell proliferation and viability. The concentrations of compounds were prepared in seven different concentrations (2.5 µM, 5 µM, 10 µM, 20 µM, 40 µM, 80 µM, 160 µM). Cells were seeded into 96-well plates at a density of 26,000 cells/well. The plates were incubated for 24 h prior to any treatment. At the end of this period, the medium was removed and 100 µL of different concentrations of pyrazoline derivatives were added to wells for 48 h. Following the exposure period, 20 μL of the combined MTS/PMS solution was added to cells and incubated for a further 2 h at 37 °C, then the absorbance was recorded at 490 nm using an ELISA Plate Reader (ELISA, Emeryville, CA, USA). The values of IC50, the effective concentration at which 50% of the primary hepatocytes were inhibited, were calculated to evaluate the cytotoxic activities.

[3] = test system: HepG-2 cells; assay: Annexin-V assay (annexin V/PI flow cytometry); format: cell-based, human; conditions: 12 h
Protocol: Approximately 1.5 × 10^5 HepG-2 cells/well were plated in 6-well plates and allowed to adhere. After 24 h, the medium was replaced with fresh culture medium containing compound b17 at final concentrations of 0 µM, 0.9 µM, 2.7 µM, and 4.5 µM. Cells were harvested after 12 h. The cells were trypsinized, washed in phosphate-buffered saline (PBS), and centrifuged at 1000 rpm for 5 min. The cells were then resuspended in 200 µL of staining solution (containing 10 µL PI and 5 µL Annexin V–PE in binding buffer), mixed gently, and incubated for 15 min at 25 °C in the dark. The samples were later analyzed with a BD Accuri™ C6 flow cytometer.

[4] = test system: HepG-2 cells; assay: Cell cycle analysis by flow cytometry (PI); format: cell-based, human; conditions: 24 h
Protocol: Based on the results of the cytotoxicity assay, compound b17 was selected for further mechanistic study with HepG-2 cells. For flow cytometry analysis of DNA content, approximately 1.5 × 10^5 HepG-2 cells/well in exponential growth mode were plated in 6-well plates and allowed to adhere, then treated with different concentrations of compound b17 for 24 h. After incubation, the cells were collected, centrifuged, and fixed with ice-cold ethanol (70%). The cells were treated with RNase A and stained with PI. Samples were analyzed on a BD Accuri C6 flow cytometer (BD, New York, NY, USA). DNA histograms were analyzed using ModFit for Windows.

[5] = Homo sapiens, HepG2, HepG-2 cell line, read-out: IC50 HepG-2
[6] = Homo sapiens, HepG2, HepG-2 cells, read-out: IC50 against HepG-2 cells

SMILES	melting point [°C]	IC50 [1, 5] [µM]	IC50 [2] [µM]	other results
N.N.[Cl][Pt][Cl] [Cisplatin, cisplatin, reference compound]	–	–	–	IC50 ([1]; HepG-2 cell line, read-out: IC50 HepG-2): 8.45 ± 1.05 µM
COc1cc(C2CC(c3ccc([N+](=O)[O-])cc3)=NN2)cc(Br)c1O (centres unmarked) [b4, 2-Bromo-6-methoxy-4-[5-(4-nitrophenyl)-3,4-dihydro-2H-pyrazol-3-yl]-phenol]	208.6 to 208.9	> 50	–	–
COc1cc(C2CC(c3ccccc3O)=NN2S(=O)(=O)c2ccccc2[N+](=O)[O-])cc(OC)c1O (centres unmarked) [b6, 4-[5-(2-Hydroxyphenyl)-2-(2-nitro-benzenesulfonyl)-3,4-dihydro-2H-pyrazol-3-yl]-2,6-dimethoxy-phenol]	151.1 to 152.8	> 50	–	–
COc1cc(C2CC(c3ccccc3O)=NN2S(=O)(=O)c2cccc([N+](=O)[O-])c2)cc(OC)c1O (centres unmarked) [b7, 4-[5-(2-Hydroxyphenyl)-2-(3-nitro-benzenesulfonyl)-3,4-dihydro-2H-pyrazol-3-yl]-2,6-dimethoxy-phenol]	131.9 to 133.5	> 50	–	–
COc1cc(C2CC(c3ccccc3O)=NN2S(=O)(=O)c2ccc([N+](=O)[O-])cc2)cc(OC)c1O (centres unmarked) [b8, 4-[5-(2-Hydroxyphenyl)-2-(4-nitro-benzenesulfonyl)-3,4-dihydro-2H-pyrazol-3-yl]-2,6-dimethoxy-phenol]	195.5 to 197	> 50	–	–
COc1cc(C2CC(c3ccccc3O)=NN2S(=O)(=O)c2ccc(C)cc2)cc(OC)c1O (centres unmarked) [b9, 4-[5-(2-Hydroxyphenyl)-2-(toluene-4-sulfonyl)-3,4-dihydro-2H-pyrazol-3-yl]-2,6-dimethoxy-phenol]	194.6 to 194.7	12 ± 1.83	29.7 ± 2.43	cytotoxicity against primary hepatocytes (in words) [2]: lower cytotoxicological activity; IC50 [1, 6]: < 50 µM
COc1cc(C2CC(c3ccccc3O)=NN2C(=O)c2ccccc2[N+](=O)[O-])cc(OC)c1O (centres unmarked) [b10, [5-(4-Hydroxy-3,5-dimethoxyphenyl)-3-(2-hydroxyphenyl)-4,5-dihydro-pyrazol-1-yl]-(2-nitrophenyl)-methanone]	194.6 to 194.7	> 50	–	–
COc1cc(C2CC(c3ccccc3O)=NN2C(=O)c2cccc([N+](=O)[O-])c2)cc(OC)c1O (centres unmarked) [b11, [5-(4-Hydroxy-3,5-dimethoxyphenyl)-3-(2-hydroxyphenyl)-4,5-dihydro-pyrazol-1-yl]-(3-nitrophenyl)-methanone]	207.7 to 209.3	> 50	–	–
COc1cc(C2CC(c3ccccc3O)=NN2C(=O)c2ccc([N+](=O)[O-])cc2)cc(OC)c1O (centres unmarked) [b12, [5-(4-Hydroxy-3,5-dimethoxyphenyl)-3-(2-hydroxyphenyl)-4,5-dihydro-pyrazol-1-yl]-(4-nitrophenyl)-methanone]	250.1 to 251.2	> 50	–	–
COc1cc(C2CC(c3ccccc3O)=NN2C(=O)c2cc([N+](=O)[O-])cc([N+](=O)[O-])c2)cc(OC)c1O (centres unmarked) [b13, (3,5-Dinitrophenyl)-[5-(4-hydroxy-3,5-dimethoxyphenyl)-3-(2-hydroxyphenyl)-4,5-dihydro-pyrazol-1-yl]-methanone]	240.4 to 240.9	> 50	–	–
COc1cc(C2CC(c3ccccc3O)=NN2C(=O)c2ccc3ccccc3c2)cc(OC)c1O (centres unmarked) [b14, [5-(4-Hydroxy-3,5-dimethoxyphenyl)-3-(2-hydroxyphenyl)-4,5-dihydro-pyrazol-1-yl]-naphthalen-2-yl-methanone]	185.5 to 186.5	18 ± 1.37	22.7 ± 1.21	–
COc1cc(C2CC(c3ccccc3O)=NN2C(=O)c2cc3ccccc3s2)cc(OC)c1O (centres unmarked) [b17, Benzo[b]thiophen-2-yl-[5-(4-hydroxy-3,5-dimethoxyphenyl)-3-(2-hydroxyphenyl)-4,5-dihydro-pyrazol-1-yl]-methanone]	169.2 to 170.1	3.57 ± 1.39	33.5 ± 2.33	cytotoxicity against primary hepatocytes (in words) [2]: low cytotoxicity; percentage of cell apoptosis ([3]; HepG-2, 0.9 µM): 7.6%; percentage of cell apoptosis ([3]; HepG-2, 2.7 µM): 8.7%; percentage of cell apoptosis ([3]; HepG-2, 4.5 µM): 10.2%; cells in G1 phase (Dip G1) ([4]; HepG-2, 0.9 µM): 56.88%; cells in G2/M phase (Dip G2) ([4]; HepG-2, 0.9 µM): 16.90%; cells in S phase (Dip S) ([4]; HepG-2, 0.9 µM): 26.22%; cells in G1 phase (Dip G1) ([4]; HepG-2, 2.7 µM): 33.02%; cells in G2/M phase (Dip G2) ([4]; HepG-2, 2.7 µM): 41.50%; cells in S phase (Dip S) ([4]; HepG-2, 2.7 µM): 25.48%; cells in G1 phase (Dip G1) ([4]; HepG-2, 4.5 µM): 3.11%; cells in S phase (Dip S) ([4]; HepG-2, 4.5 µM): 13.89%
COc1cc(C2CC(c3ccc(C)cc3)=NN2c2ccccc2)cc(OC)c1OC (centres unmarked) [b19, 1-Phenyl-3-p-tolyl-5-(3,4,5-trimethoxyphenyl)-4,5-dihydro-1H-pyrazole]	137.9 to 140.3	> 50	–	–

Now from value to compound, other results behind:

melting point [°C]	SMILES	IC50 [1, 5] [µM]	IC50 [2] [µM]	other results
140.3 to 140.7	COc1cc(C2CC(c3ccccc3O)=NN2)cc(OC)c1O (centres unmarked) [b1, 4-[5-(2-Hydroxyphenyl)-3,4-dihydro-2H-pyrazol-3-yl]-2,6-dimethoxy-phenol]	> 50	–	–
140.7 to 141.1	COc1cc(C2CC(c3ccc([N+](=O)[O-])cc3)=NN2)cc(OC)c1O (centres unmarked) [b2, 2,6-Dimethoxy-4-[5-(4-nitrophenyl)-3,4-dihydro-2H-pyrazol-3-yl]-phenol]	> 50	–	–
181.8 to 183.9	COc1cc(C2CC(c3ccccc3O)=NN2)cc(Br)c1O (centres unmarked) [b3, 2-Bromo-4-[5-(2-hydroxyphenyl)-3,4-dihydro-2H-pyrazol-3-yl]-6-methoxy-phenol]	> 50	–	–
163.1 to 164.4	COc1cc(C2CC(c3ccccc3O)=NN2S(=O)(=O)c2ccccc2)cc(OC)c1O (centres unmarked) [b5, 4-[2-Benzenesulfonyl-5-(2-hydroxyphenyl)-3,4-dihydro-2H-pyrazol-3-yl]-2,6-dimethoxy-phenol]	28.8 ± 1.32	35.1 ± 2.21	cytotoxicity against primary hepatocytes (in words) [2]: lower cytotoxicological activity; IC50 [1, 6]: < 50 µM
196.1 to 197.2	COc1cc(C2CC(c3ccccc3O)=NN2C(=O)c2cccs2)cc(OC)c1O (centres unmarked) [b15, [5-(4-Hydroxy-3,5-dimethoxyphenyl)-3-(2-hydroxyphenyl)-4,5-dihydro-pyrazol-1-yl]-thiophen-2-yl-methanone]	4.51 ± 1.49	19.24 ± 0.08	–
201.1 to 203.7	COc1cc(C2CC(c3ccccc3O)=NN2C(=O)c2ccco2)cc(OC)c1O (centres unmarked) [b16, Furan-2-yl-[5-(4-hydroxy-3,5-dimethoxyphenyl)-3-(2-hydroxyphenyl)-4,5-dihydro-pyrazol-1-yl]-methanone]	4.61 ± 1.27	20.7 ± 1.72	–
169.7 to 170.8	COc1cc(C2CC(c3ccccc3O)=NN2c2ccccc2)cc(OC)c1O (centres unmarked) [b18, 4-[5-(2-Hydroxyphenyl)-2-phenyl-3,4-dihydro-2H-pyrazol-3-yl]-2,6-dimethoxy-phenol]	28.5 ± 1.34	50.7 ± 3.21	–
